Patent US8198273B2, “Compounds and methods for kinase modulation, and indications therefor” (Plexxikon Inc., priority 2009, dated 2012)

Key:
A-Raf = molecular target: T1, A-Raf (Homo sapiens, UniProt P10398); test: A-Raf biochemical kinase inhibition (AlphaScreen, biotin-MEK1 substrate); conditions: 100 μM ATP
T1 sequence (P10398 1-606): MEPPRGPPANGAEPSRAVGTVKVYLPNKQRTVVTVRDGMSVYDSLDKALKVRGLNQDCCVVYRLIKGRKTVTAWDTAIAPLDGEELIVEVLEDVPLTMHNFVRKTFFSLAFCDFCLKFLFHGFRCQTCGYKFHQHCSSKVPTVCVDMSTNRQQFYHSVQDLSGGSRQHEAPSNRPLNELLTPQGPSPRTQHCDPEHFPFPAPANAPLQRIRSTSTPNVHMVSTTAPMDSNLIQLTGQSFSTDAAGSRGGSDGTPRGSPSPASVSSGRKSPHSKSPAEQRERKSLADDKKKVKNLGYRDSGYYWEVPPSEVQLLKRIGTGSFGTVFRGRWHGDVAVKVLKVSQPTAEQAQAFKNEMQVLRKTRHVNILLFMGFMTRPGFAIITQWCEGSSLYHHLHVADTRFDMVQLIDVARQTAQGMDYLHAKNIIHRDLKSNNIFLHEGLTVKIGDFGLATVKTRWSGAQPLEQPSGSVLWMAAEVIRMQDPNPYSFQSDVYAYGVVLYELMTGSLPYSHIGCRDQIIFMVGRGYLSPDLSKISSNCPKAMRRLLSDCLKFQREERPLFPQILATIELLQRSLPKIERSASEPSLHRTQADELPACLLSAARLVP
Procedure, shortened: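 Eight-point compound series (made from a 0.1 mM DMSO stock) tested against each Raf enzyme with biotin-MEK1 substrate and 100 μM final ATP.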

[1] = tested on: SKMEL3 melanoma cells (B-Raf V600E); test: SKMEL3 cell growth inhibition (ATPlite); format: cell-based; conditions: Homo sapiens, SK-MEL3, 72 h; SKMEL3, 3 days incubation
Description: (§1) Compounds are assessed in a variety of cell based assays. For example human cell lines with B-Raf V600E mutation (A375 melanoma, SKMEL3 melanoma, and COL0205 colon adenocarcinoma), as well as tumorigenic cell lines with wild-type B-RAF (SW620 colon adenocarcinoma) or with Ras mutations (SKMEL2 melanoma and IPC298 melanoma). Similar assays may be used to assess additional tumorigenic cell lines with Ras mutations, including, but not limited to, M202, M207, M243, M244, M296, S117, HCT116, HCT15, DLD1, MiaPaCa, A549, NCI-H23, NCI-H460, HOP62, MDA-MB231, Hs-578T, HL60, MOLT-4, and CCRF-CEM.
(§2) On day 1, cells are counted, then centrifuged in a conical tube for 5 minutes at 1000 rpm. The supernatant is removed and cells are re-suspended as follows: • SW620 (ATCC catalog #CCL-27): resuspend in Leibovitz's L-15 medium, 2 mM L-glutamine, 10% fetal bovine serum to 6×10^4 cells/mL. • A375 (ATCC catalog #CRL-1619): resuspend in Dulbecco's modified Eagle's medium, 4 mM L-glutamine, 4.5 g/L D-glucose, 10% fetal bovine serum to 6×10^4 cells/mL. • COL0205 (ATCC catalog #CCL-222): resuspend in RPMI 1640, 2 mM L-glutamine, 1.5 g/L sodium bicarbonate, 4.5 g/L D-glucose, 10 mM HEPES, 1.0 mM sodium pyruvate, 10% fetal bovine serum to 6×10^4 cells/mL. • SKMEL2 (ATCC catalog #HTB-68): resuspend in Minimum Eagle essential medium, 2 mM L-glutamine, 1.5 g/L sodium bicarbonate, 0.1 mM non-essential amino acids, 1.0 mM sodium pyruvate, 10% fetal bovine serum to 6×10^4 cells/mL. • SKMEL3 (ATCC catalog #HTB-69): resuspend in McCoy's 5A medium, 1.5 mM L-glutamine, 15% fetal bovine serum to 6×10^4 cells/mL. • IPC298 (DSMZ catalog #ACC 251): resuspend in RPMI 1640, 2 mM L-glutamine, 10% fetal bovine serum to 6×10^4 cells/mL.
(§3) The cells are plated, 50 μL in each well of a 96-well dish (Corning 3610) and incubated at 37° C. in 5% CO2 overnight, cells plated to a final concentration of cells as follows:
SKMEL3: 3,000 cells per well.
On day 2, compound at a maximum concentration of 5 mM is serially diluted 1:3 for a total of 8 point titration with DMSO as a control. A 1 μL aliquot of each dilution point and control is added to 249 μL growth media and 50 μL is added to a well containing cells, providing 10 μM compound at the maximum concentration point. The cells are incubated for 3 days at 37° C. in 5% CO2.
(§4) On day 5, ATPlite 1 step Luminescence Assay System (Perkin Elmer #6016739) is brought to room temperature along with the cell cultures. ATPlite is added 25 μL to each well, shake for 2 minutes, and the cells are incubated at room temperature for 10 minutes, then luminescence is read on Safire reader. The measured luminescence correlates directly with cell number, such that the reading as a function of compound concentration is used to determine the IC50 value.
It is understood that the results of these assays may vary as assay conditions are varied. Inhibition levels determined under the conditions described herein represent a relative activity for the compounds tested under the specific conditions employed. The cell based assays are likely to show variability due to the complexity of the system and the sensitivity thereof to any changes in the assay conditions. […] Results for compounds that are tested and show substantially no inhibition below the highest tested concentration are represented as “-” in the tables below. In some instances, the compounds were not tested in all of the assays, or assay results were not valid, as indicated by NA in the tables below.

[2] = tested on: IPC298 melanoma cells (Ras mutation); test: IPC298 cell growth inhibition (ATPlite); format: cell-based; conditions: Homo sapiens, IPC-298, 72 h; IPC298, 3 days incubation
Description: as §1, §2, §3
On day 2, compound at a maximum concentration of 5 mM is serially diluted 1:3 for a total of 8 point titration with DMSO as a control. […]
as §4
It is understood that the results of these assays may vary as assay conditions are varied. Inhibition levels determined under the conditions described herein represent a relative activity for the compounds tested under the specific conditions employed. […]

Colo205 xenograft = Colo205 xenograft mouse model, tumor growth inhibition; format: in vivo; conditions: COLO 205, 336 h, female nu/nu mice, 10 mg/kg daily for fourteen days
Description: Tumor growth is monitored to approximately 100 mg size, and mice are distributed to treatment groups such that the mean tumor burden within a group is within 10% of the overall mean tumor burden. […] Mice are observed daily, with tumor burden and body weights measured twice a week. Animals with tumor burden above 1500-2000 mg and any animals in moribund condition are euthanized. The average tumor growth of vehicle control group mice is compared to the average tumor growth of the test compound mice. Percent tumor growth inhibition is calculated as 100×[(tumor growth control-tumor growth test compound)/tumor growth control].

IC50 (A-Raf): < 0.01 µM | IC50 [1]: < 1 µM | IC50 [2]: < 10 µM
Compound: CCCS(=O)(=O)Nc1ccc(F)c(C(=O)c2c[nH]c3ncc(-c4cnc(N(C)C)nc4)cc23)c1F [P-2196, Propane-1-sulfonic acid {3-[5-(2-dimethylamino-pyrimidin-5-yl)-1H-pyrrolo[2,3-b]pyridine-3-carbonyl]-2,4-difluoro-phenyl}-amide]
inhibition in vivo at 10 mg/kg (Colo205 xenograft): 71%
